# Results taken from ChEMBL document CHEMBL1132125, “Synthesis of phosphonate 3-phthalidyl esters as prodrugs for potential intracellular delivery of phosphonates” (Bioorg Med Chem Lett, 1999).
# Key:
# [1] = Half-life period of compound was measured in rat plasma.; type: ADME
# Rattus norvegicus = species: Rattus norvegicus; test: Intracellular concentration of 1-naphthalenemethylphosphonate (NMPA) in isolated rat hepatocytes was measured after 15 min of incubation.; type: functional; conditions: Hepatocyte
half-life [1] [min],Compound,Concentration (Rattus norvegicus) [µM]
10,Cc1ccc2c(c1-c1ccccc1)C(=O)OC2OP(=O)(Cc1cccc2ccccc12)OC1OC(=O)c2c1ccc(C)c2-c1ccccc1 (configuration not stated),20
0.5,O=C1OC(OP(=O)(Cc2cccc3ccccc23)OC2OC(=O)c3ccccc32)c2ccccc21 (configuration not stated),500
2,COc1cccc2c1C(=O)OC2OP(=O)(Cc1cccc2ccccc12)OC1OC(=O)c2c(OC)cccc21 (configuration not stated),336
0.5,COc1ccc2c(c1)C(OP(=O)(Cc1cccc3ccccc13)OC1OC(=O)c3ccc(OC)cc31)OC2=O (configuration not stated),428
2,CCOc1cccc2c1C(=O)OC2OP(=O)(Cc1cccc2ccccc12)OC1OC(=O)c2c(OCC)cccc21 (configuration not stated),208
0.1,O=C1OC(OP(=O)(Cc2cccc3ccccc23)OC2OC(=O)c3c(Cl)ccc(Cl)c32)c2c(Cl)ccc(Cl)c21 (configuration not stated),78

# Continued, molecule first:
Compound,half-life [1] [min],Concentration (Rattus norvegicus) [µM]
COc1cc2c(c(OC)c1OC)C(=O)OC2OP(=O)(Cc1cccc2ccccc12)OC1OC(=O)c2c1cc(OC)c(OC)c2OC (configuration not stated),5,246
COc1cc(OC)c2c(c1)C(OP(=O)(Cc1cccc3ccccc13)OC1OC(=O)c3c(OC)cc(OC)cc31)OC2=O (configuration not stated),,359
COc1cccc2c1C(OP(=O)(Cc1cccc3ccccc13)OC1OC(=O)c3cccc(OC)c31)OC2=O (configuration not stated),,0
O=P(O)(O)Cc1cccc2ccccc12,,0
